Measured values: patent US10294202B2, “Pyrrolidinones as herbicides” (FMC Corporation, priority 2013, dated 2019)
Where two headings read alike, the source gives them in different places.

Assays:
wheat (winter wheat) = assay: Test C pre-/postemergence herbicide test; assay type: in vivo, Triticum aestivum
Method in brief: (§1)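 Greenhouse pots; formulation = non-phytotoxic solvent mix + surfactant. PRE onto seeds in loam:sand; POST at 1–4 leaves (2–18 cm) in peat moss/vermiculite medium. Read-out: visual % control vs untreated, day 13–15.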

galium = assay: Test C pre-/postemergence herbicide test; assay type: in vivo, Galium aparine
Method in brief: as §1

pigweed = assay: Test C pre-/postemergence herbicide test; assay type: in vivo, Amaranthus retroflexus
Method in brief: as §1

velvetleaf = assay: Test C pre-/postemergence herbicide test; assay type: in vivo, Abutilon theophrasti
Method in brief: as §1

barnyardgrass = assay: Test A pre-/postemergence herbicide test; assay type: in vivo, Echinochloa crus-galli; details: for pest or weed control at 500 g/ha: 500 g ai/ha; for pest or weed control at 1000 g/ha: 1000 g ai/ha
Method in brief: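 Greenhouse pot test with pre- and postemergence application of surfactant-containing solvent formulations. Postemergence plants were 2–10 cm, one- to two-leaf stage. Response scored visually after ~10 days, 0 (no effect) to 100 (complete control).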

soybean = assay: Test C pre-/postemergence herbicide test; assay type: in vivo, Glycine max
Method in brief: as §1

crabgrass, large = assay: Test C pre-/postemergence herbicide test; assay type: in vivo, Digitaria sanguinalis
Method in brief: as §1

foxtail, giant = assay: Test C pre-/postemergence herbicide test; assay type: in vivo, Setaria faberii
Method in brief: as §1

blackgrass = assay: Test C pre-/postemergence herbicide test; assay type: in vivo, Alopecurus myosuroides
Method in brief: as §1

oat, wild = assay: Test C pre-/postemergence herbicide test; assay type: in vivo, Avena fatua
Text: Seeds of plant species selected from blackgrass (Alopecurus myosuroides), ryegrass, Italian (Italian ryegrass, Lolium multiflorum), wheat (winter wheat, Triticum aestivum), galium (catchweed bedstraw, Galium aparine), corn (Zea mays), crabgrass, large (large crabgrass, Digitaria sanguinalis), foxtail, giant (giant foxtail, Setaria faberii), johnsongrass (Sorghum halepense), lambsquarters (Chenopodium album), morningglory (Ipomoea coccinea), nutsedge, yellow (yellow nutsedge, Cyperus esculentus), pigweed (Amaranthus retroflexus), ragweed (common ragweed, Ambrosia elatior), soybean (Glycine max), barnyardgrass (Echinochloa crus-galli), oilseed rape (Brassica napus), waterhemp (common waterhemp, Amaranthus rudis), kochia (Kochia scoparia), oat, wild (wild oat, Avena fatua), surinam grass (Brachiaria decumbens), foxtail, green (green foxtail, Setaria viridis), goosegrass (Eleusine indica), bromegrass, downy (downy bromegrass, Bromus tectorum), nightshade (eastern black nightshade, Solanum ptycanthum), cocklebur (common cocklebur, Xanthium strumarium), cupgrass, woolly (woolly cupgrass, Eriochloa villosa), bermudagrass (Cynodon dactylon), sunflower, (common oilseed sunflower, Helianthus annuus), Russian thistle (Salsola kali) and velvetleaf (Abutilon theophrasti) were planted into a blend of loam soil and sand and treated preemergence with test chemicals formulated in a non-phytotoxic solvent mixture which included a surfactant. At the same time, plants selected from these crop and weed species and also barley (winter barley, Hordeum vulgare), […]), chickweed (common chickweed, Stellaria media), deadnettle (henbit deadnettle, Lamium amplexicaule), and canarygrass (littleseed canarygrass, Phalaris minor) were planted in pots containing Redi-Earth® planting medium (Scotts Company, 14111 Scottslawn Road, Marysville, Ohio 43041) comprising spaghnum peat moss, vermiculite, wetting agent and starter nutrients and treated with postemergence applications of test chemicals formulated in the same manner. Plants ranged in height from 2 to 18 cm (1- to 4-leaf stage) for postemergence treatments. Treated plants and controls were maintained in a greenhouse for 13 to 15 days, after which time all species were compared to controls and visually evaluated. Plant response ratings, summarized in Table C, are based on a scale of 0 to 100 where 0 is no effect and 100 is complete control. A dash (-) response means no test result.

[1] = Preemergence, 62 g ai/ha, scale 0 to 100
[2] = Preemergence, 125 g ai/ha, scale 0 to 100 (0 no effect, 100 complete control)
[3] = Preemergence, 31 g ai/ha, scale 0 to 100 (0 no effect, 100 complete control)
[4] = Preemergence, 250 g ai/ha, scale 0 to 100 (0 no effect, 100 complete control)
[5] = Echinochloa crus-galli, post-emergence, 240 h, Postemergence, 0 to 100 scale (0 no effect, 100 complete control), read-out: Plant response rating, Barnyardgrass
[6] = Postemergence, 31 g ai/ha, scale 0 (no effect) to 100 (complete control)
[7] = Postemergence, 62 g ai/ha, scale 0 to 100 (0 no effect, 100 complete control)
[8] = Postemergence, 125 g ai/ha, scale 0 to 100 (0 no effect, 100 complete control)
[9] = Postemergence, 250 g ai/ha, scale 0 to 100 (0 no effect, 100 complete control)

O=C1NCCC1C(=O)N(c1ccc(F)c(F)c1)c1ccccc1F (stereo not drawn) [Compound 5, N-(3,4-difluorophenyl)-N-(2-fluorophenyl)-2-oxo-3-pyrrolidinecarboxamide]
100: Plant response rating, Crabgrass, Large (crabgrass, large; [1]) | Plant response rating, Crabgrass, Large (crabgrass, large; [2]) | Crabgrass, Large plant response rating (crabgrass, large; [3]) | Plant response rating, Crabgrass, Large (crabgrass, large; [4]) | Plant response rating, Foxtail, Giant (foxtail, giant; [1]) | Plant response rating, Foxtail, Giant (foxtail, giant; [2]) | Plant response rating, Foxtail, Giant (foxtail, giant; [4])
90%: pest or weed control at 500 g/ha (barnyardgrass; [5]) | pest or weed control at 500 g/ha (barnyardgrass; Echinochloa crus-galli, pre-emergence, 240 h, preemergence, 0 to 100 scale (0 no effect, 100 complete control), read-out: Plant response rating, Barnyardgrass)
95: Foxtail, Giant plant response rating (foxtail, giant; [3])
5: Plant response rating, Wheat (wheat (winter wheat); [2]) | Plant response rating, Galium (galium; [1])
30: Plant response rating, Blackgrass (blackgrass; [4])
70: Barnyardgrass plant response rating (barnyardgrass; Preemergence, 125 g ai/ha, visual rating on 0 to 100 scale (0 no effect, 100 complete control))
60%: pest or weed control at 125 g/ha (barnyardgrass; Echinochloa crus-galli, post-emergence, 240 h, Postemergence, 125 g ai/ha, 0 to 100 scale, 0 no effect, 100 complete control, read-out: Plant response rating, Barnyardgrass)
40: Plant response rating, Galium (galium; [4])
0: Plant response rating, Wheat (wheat (winter wheat); [1]) | Galium plant response rating (galium; [3]) | Plant response rating, Pigweed (pigweed; [1]) | Plant response rating, Pigweed (pigweed; [2]) | Plant response rating, Velvetleaf (velvetleaf; [1]) | Plant response rating, Velvetleaf (velvetleaf; [2]) | Plant response rating, Soybean (soybean; [1]) | Plant response rating, Soybean (soybean; [2]) | Plant response rating, Blackgrass (blackgrass; [1]) | Plant response rating, Blackgrass (blackgrass; [2]) | Blackgrass plant response rating (blackgrass; [3]) | Plant response rating, Oat, Wild (oat, wild; [1]) | Plant response rating, Oat, Wild (oat, wild; [2])

O=C1NCC(c2ccc(F)c(F)c2)C1C(=O)Nc1cccc(F)c1F (stereo not drawn) [Compound 17, N-(2,3-difluorophenyl)-4-(3,4-difluorophenyl)-2-oxo-3-pyrrolidinecarboxamide]
50: Plant response rating, Pigweed (pigweed; [2]) | Plant response rating, Blackgrass (blackgrass; [1])
80: Plant response rating, Blackgrass (blackgrass; [2])
98: Plant response rating, Crabgrass, Large (crabgrass, large; [1])
45: Plant response rating, Crabgrass, Large (crabgrass, large; [8])
10: Plant response rating, Foxtail, Giant (foxtail, giant; [9])
5: Blackgrass plant response rating (blackgrass; [3])
0: Plant response rating, Wheat (wheat (winter wheat); [6]) | Plant response rating, Wheat (wheat (winter wheat); [7]) | Plant response rating, Wheat (wheat (winter wheat); [8]) | Plant response rating, Wheat (wheat (winter wheat); [9]) | Plant response rating, Wheat (wheat (winter wheat); [1]) | Plant response rating, Wheat (wheat (winter wheat); [2]) | Plant response rating, Galium (galium; [6]) | Plant response rating, Galium (galium; [7]) | Plant response rating, Galium (galium; [8]) | Plant response rating, Galium (galium; [9]) | Galium plant response rating (galium; [3]) | Plant response rating, Pigweed (pigweed; [6]) | Plant response rating, Pigweed (pigweed; [7]) | Plant response rating, Pigweed (pigweed; [8]) | Plant response rating, Pigweed (pigweed; [9]) | Plant response rating, Pigweed (pigweed; [1]) | Plant response rating, Velvetleaf (velvetleaf; [6]) | Plant response rating, Velvetleaf (velvetleaf; [7]) | Plant response rating, Velvetleaf (velvetleaf; [8]) | Plant response rating, Velvetleaf (velvetleaf; [9]) | Plant response rating, Velvetleaf (velvetleaf; [1]) | Plant response rating, Velvetleaf (velvetleaf; [2]) | Plant response rating, Soybean (soybean; [6]) | Plant response rating, Soybean (soybean; [7]) | Plant response rating, Soybean (soybean; [8]) | Plant response rating, Soybean (soybean; [9]) | Plant response rating, Soybean (soybean; [1]) | Plant response rating, Soybean (soybean; [2]) | Plant response rating, Crabgrass, Large (crabgrass, large; [6]) | Plant response rating, Crabgrass, Large (crabgrass, large; [7]) | Plant response rating, Foxtail, Giant (foxtail, giant; [6]) | Plant response rating, Foxtail, Giant (foxtail, giant; [7]) | Plant response rating, Foxtail, Giant (foxtail, giant; [8]) | Plant response rating, Blackgrass (blackgrass; [6]) | Plant response rating, Blackgrass (blackgrass; [7]) | Plant response rating, Blackgrass (blackgrass; [8]) | Plant response rating, Blackgrass (blackgrass; [9]) | Plant response rating, Oat, Wild (oat, wild; [6]) | Plant response rating, Oat, Wild (oat, wild; [7]) | Plant response rating, Oat, Wild (oat, wild; [8]) | Plant response rating, Oat, Wild (oat, wild; [9]) | Plant response rating, Oat, Wild (oat, wild; [1]) | Plant response rating, Oat, Wild (oat, wild; [2])
90: Plant response rating, Galium (galium; [4]) | Foxtail, Giant plant response rating (foxtail, giant; [3])
100: Plant response rating, Crabgrass, Large (crabgrass, large; [2]) | Plant response rating, Crabgrass, Large (crabgrass, large; [4]) | Plant response rating, Foxtail, Giant (foxtail, giant; [2]) | Plant response rating, Foxtail, Giant (foxtail, giant; [4])
95: Crabgrass, Large plant response rating (crabgrass, large; [3]) | Plant response rating, Foxtail, Giant (foxtail, giant; [1]) | Plant response rating, Blackgrass (blackgrass; [4])
70: Plant response rating, Galium (galium; [1]) | Plant response rating, Galium (galium; [2]) | Plant response rating, Crabgrass, Large (crabgrass, large; [9])
90%: pest or weed control at 1000 g/ha (barnyardgrass; [5]) | pest or weed control at 1000 g/ha (barnyardgrass; Echinochloa crus-galli, pre-emergence, 240 h, Preemergence, visual rating on 0 to 100 scale (0 no effect, 100 complete control), approx. 10 days, read-out: Plant response rating, Barnyardgrass)
